Reference: patent publication US20050245399A1, “Pyrazole derivatives as herbicidal compositions containing them” (ISHIHARA SANGYO KAISHA, LTD., priority 2004, published 2005)

Experiments:
Format in all cases: in vivo
[1] = test system: wheat (Triticum aestivum L.): TRZAX; experiment: Test Example 1 pre-emergence herbicidal activity, TRZAX; details: Rate 63 g a.i./ha, visually observed 20th to 23rd day after application
Procedure, shortened: (§1)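 Compound was delivered by small sprayer to sown upland soil one day after sowing, before emergence, at 500 L/ha spray volume. Plant growth was assessed visually around 3 weeks later (days 20–23), 100% denoting complete kill.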

[2] = test system: common cocklebur (Xanthium strumarium L.), XANST; experiment: Test Example 2 post-emergence (foliage treatment) herbicidal activity, XANST
Source text: Upland field soil was put into a 1/170,000 ha pot, and seeds of various plants were sown. Then, when the plants reached predetermined leaf stages {1. barnyardgrass (Echinochloa crus-galli L.), ECHCG: 1.1-2.1 leaf stage, 2. crabgrass (Digitaria sanguinalis L.), DIGSA: 1.0-2.0 leaf stage, 3. green foxtail (Setaria viridis L.), SETVI: 1.0-2.2 leaf stage, 4. redroot pigweed (Amaranthus retroflexus L.), AMARE: 0.1-1.5 leaf stage, 5. prickly sida (Sida spinosa L.), SIDSP: 0.1-0.6 leaf stage, 6. velvetleaf (Abutilon theophrasti), ABUTH: 0.1-0.6 leaf stage, 7. common cocklebur (Xanthium strumarium L.), XANST: 0.1 leaf stage, 8. rice (Oryza sativa L.), ORYSA; 1.0-2 leaf stage, 9. wheat (Triticum aestivum L.), TRZAX: 2.3-3.5 leaf stage, 10. corn (Zea mays L.), ZEAMXN 2.1-2.6 leaf stage, 11. soybean (Glycine max Merr.), GLXMA: primary leaf stage}, a wettable powder or emulsifiable concentrate having the compound of the present invention formulated in accordance with a usual formulation method, was weighed so that the active ingredient would be a predetermined amount, and diluted with water in an amount of 500 L/ha. To the diluted solution, 0.1% (v/v) of an agricultural spreader was added. The herbicide adjusted was applied by a small size sprayer for foliage treatment. On the 20th to 23rd day after the application of the herbicide, the growth of the respective plants was visually observed, and the herbicidal effects were evaluated by growth controlling degrees (%) ranging from 0 (equivalent to the untreated control) to 100 (complete kill), whereby the results shown in Table 5, were obtained. Compound Nos. in Table 5 correspond to Compound Nos. in Table 1 and 2 given hereinbefore.

[3] = test system: rice (Oryza sativa L.: ORYSA); experiment: Test Example 3 water application herbicidal activity (paddy), transplanted rice ORYSA; details: 63 g a.i./ha, water application 4th day after transplantation of 2 leaf stage rice, visually observed 21st day after application; 0 = untreated control, 100 = complete kill
Procedure, shortened: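 Rice at 2-leaf stage is transplanted into flooded puddled soil and treated by water application 4 days later, at a predetermined active-ingredient dose. Crop injury is rated visually as growth control (0–100%) 21 days after treatment.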

[4] = test system: japanese ribbon wapato (Sagittaria pygmaea: SA GPY); experiment: Test Example 3 water application herbicidal activity (paddy), SAGPY; details: 63 g a.i./ha, water application under submerged condition, tubers planted, visually observed 14th day after application; 0 = untreated control, 100 = complete kill
Procedure, shortened: (§2)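 Submerged application in flooded paddy soil (3–4 cm water); weeds treated at 0.5-leaf stage, transplanted rice 4 d after transplanting. Scored visually as % growth control: weeds at 14 d, rice at 21 d.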

[5] = test system: velvetleaf (Abutilon theophrasti): ABUTH; experiment: Test Example 1 pre-emergence herbicidal activity, ABUTH; details: Rate 63 g a.i./ha, visually observed 20th to 23rd day after application
Procedure, shortened: as §1

[6] = test system: wheat (Triticum aestivum L.), TRZAX; experiment: Test Example 2 post-emergence (foliage treatment) herbicidal activity, TRZAX
Procedure, shortened: (§3)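 A small sprayer delivered the diluted WP or EC formulation (500 L/ha water, 0.1% v/v spreader) over emerged seedlings in upland soil pots. Damage relative to untreated plants was graded visually from 0 to 100% three weeks or so later (days 20-23).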

[7] = test system: japanese bulrush (Scirpus juncoides: SCPJO); experiment: Test Example 3 water application herbicidal activity (paddy), SCPJO; details: 63 g a.i./ha, water application under submerged condition at 0.5 leaf stage, visually observed 14th day after application; 0 = untreated control, 100 = complete kill
Procedure, shortened: as §2

[8] = test system: soybean (Glycine max Merr.): GLXMA; experiment: Test Example 1 pre-emergence herbicidal activity, GLXMA; details: Rate 63 g a.i./ha, visually observed 20th to 23rd day after application
Procedure, shortened: as §1

[9] = test system: rice (Oryza sativa L.), ORYSA; experiment: Test Example 2 post-emergence (foliage treatment) herbicidal activity, ORYSA
Procedure, shortened: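 Greenhouse pot test with upland field soil. Treatment: foliage spray, active ingredient at a predetermined amount, 500 L/ha, spreader 0.1% (v/v); leaf stage 0.1-1.5 (AMARE), 1.1-2.1 (ECHCG), 1.0-2.0 (DIGSA), 1.0-2 (ORYSA). Endpoint: visual % control, d20-23.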

[10] = test system: soybean (Glycine max Merr.), GLXMA; experiment: Test Example 2 post-emergence (foliage treatment) herbicidal activity, GLXMA
Procedure, shortened: as §3

[11] = test system: redroot pigweed (Amaranthus retroflexus L.): AMARE; experiment: Test Example 1 pre-emergence herbicidal activity, AMARE; details: Rate 63 g a.i./ha, visually observed 20th to 23rd day after application
Procedure, shortened: as §1

Compound | Pre-emergence Herbicidal Activity TRZAX (growth controlling degree) [1] | growth controlling degree, XANST ([2]; 63 g a.i./ha) | growth controlling degrees (%) ORYSA [3] | growth controlling degrees (%) SAGPY [4] | Pre-emergence Herbicidal Activity ABUTH (growth controlling degree) [5] | growth controlling degree, TRZAX ([6]; 63 g a.i./ha) | growth controlling degrees (%) SCPJO [7] | Pre-emergence Herbicidal Activity GLXMA (growth controlling degree) [8] | growth controlling degree, ORYSA ([9]; 63 g a.i./ha) | growth controlling degree, GLXMA ([10]; 63 g a.i./ha) | Pre-emergence Herbicidal Activity AMARE (growth controlling degree) [11] | growth controlling degree, XANST ([2]; 125 g a.i./ha) | growth controlling degree, TRZAX ([6]; 125 g a.i./ha) | growth controlling degree, ORYSA ([9]; 125 g a.i./ha) | growth controlling degree, GLXMA ([10]; 125 g a.i./ha)
COc1c(Cl)cc(F)c(-c2nn(C)c(OC(F)F)c2Cl)c1N(C=O)CC(=O)c1ccccc1 [Compound 1-12] | 20% | 50% | 35% | 30% | 100% | 20% | 50% | 40% | 40% | 40% | 100% |  |  |  | 
COc1c(Cl)cc(F)c(-c2nn(C)c(OC(F)F)c2Cl)c1NC1CCCC1 [Compound 1-60] | 0% | 100% | 30% | 60% | 30% | 40% | 60% | 0% | 40% | 70% | 95% |  |  |  | 
COc1c(Cl)cc(F)c(-c2nn(C)c(OC(F)F)c2Cl)c1N(C(=O)C=C(C)C)C(=O)C=C(C)C [Compound 1-11] | 20% | 30% | 35% | 40% | 100% | 20% | 40% | 50% | 40% | 50% | 100% |  |  |  | 
Cn1nc(-c2c(F)cc(Cl)c(OC(F)F)c2N)c(Cl)c1OC(F)F [Compound 1-81, 3-chloro-6-[4-chloro-5-(difluoromethoxy)-1-methyl-1H-pyrazol-3-yl]-2-(difluoromethoxy)-5-fluorobenzenamine] | 20% |  | 35% | 95% | 100% |  | 100% | 20% |  |  | 100% | 100% | 100% | 70% | 80%
COc1c(Cl)cc(F)c(-c2nn(C)c(OC(F)F)c2Cl)c1N(C=O)CC(C)=O [Compound 1-14] | 40% | 100% | 50% | 98% | 100% | 40% | 90% | 60% | 40% | 60% | 100% |  |  |  | 
COc1c(Cl)cc(F)c(-c2nn(C)c(OC(F)F)c2Cl)c1NC(=O)C=C(C)C [Compound 1-9] | 40% | 70% | 30% | 100% | 100% | 40% | 100% | 90% | 80% | 90% | 100% |  |  |  | 
CNc1c(OC)c(Cl)cc(F)c1-c1nn(C)c(OC(F)F)c1Cl [Compound 1-58] | 10% | 100% | 70% | 100% | 95% | 60% | 100% | 20% | 70% | 95% | 100% |  |  |  | 
COc1c(Cl)cc(F)c(-c2nn(C)c(OC(F)F)c2Cl)c1NC(C)C [Compound 1-59] | 30% | 100% | 40% | 60% | 95% | 50% | 80% | 30% | 40% | 95% | 100% |  |  |  | 
COc1c(Cl)cc(F)c(-c2nn(C)c(OC(F)F)c2Cl)c1N(C=O)CC(=O)c1ccc(Cl)cc1 [Compound 1-13] | 30% | 50% | 10% | 0% | 100% | 30% | 40% | 50% | 70% | 50% | 100% |  |  |  | 
COc1c(Cl)cc(F)c(-c2nn(C)c(OC(F)F)c2Cl)c1N(C)C=O [Compound 1-6] | 20% | 95% | 50% | 30% | 50% | 30% | 60% | 0% | 40% | 90% | 100% |  |  |  | 
COc1c(Cl)cc(F)c(-c2nn(C)c(OC(F)F)c2Cl)c1N(C=O)C1CCCC1 [Compound 1-10] | 40% | 100% | 10% | 40% | 100% | 40% | 40% | 50% | 70% | 50% | 100% |  |  |  | 
